Experimental data published in patent US4339427A, “Radioimmunoassay of thymosinα” (Hoffmann-la Roche Inc., priority 1980, dated 1982).
Where no end group is shown, it is not given here.

system: rabbit anti-thymosin α1 antiserum; assay: radioimmunoassay for thymosin α1 (inhibition of tracer binding / cross-reactivity, double antibody method); settings: not given
Experimental: a. Preparation of antisera
Synthetic thymosin α1 was coupled to Keyhole Limpet Hemocyanin (KLH) by means of glutaraldehyde using the following procedure. Equivalent amounts (dry weight) of each protein, thymosin α1 and hemocyanin, were dissolved in 0.25 M NaPO4, pH 7.0 buffer at a concentration of 2 mg/ml. […] The reaction was allowed to continue for 3 hours while being stirred at room temperature. The reaction mixture was diluted in sterile saline to a final concentration of thymosin α1 of 100 μg/ml. The solution of coupled thymosin α1 was aliquoted and stored at -20° C.
The mixture of products resulting from the cross-linking reactions carried out at room temperature was not fractionated or purified in any way. The thymosin α1 KLH conjugate was diluted with sterile normal saline and stored frozen for immunizations. Rabbits were immunized by administering 100 μg thymosin α1 (as the KLH conjugate) in emulsion with Ereund's Complete Adjuvant at 15-20 intradermal sites on the back of each rabbit according to the method of Vaitukaitis et al., J. Clin. Endoch. […] Weekly boosts of 50 μg thymosin α1 per animal in Freund's Incomplete Adjuvant were also administered at multiple intradermal sites.
b. Radioiodination of [Tyr^1 ]-thymosin α1
After a reaction time of 30 seconds at room temperature, the enzyme was inhibited by the addition of […]. […] The tracer was diluted 1:2,000 in immunoassay buffer to provide 4,000-5,000 cpm per assay tube, which is equivalent to less than 1 pg peptide mass per assay tube.
Separation of free from bound tracer is carried out by the addition of goat anti-rabbit gamma globulin serum, incubation for 1 hour at 37° C. and finally incubation at 4° C. for 16 hours. The immunoprecipitate is pelleted by centrifugation at 2500 rpm for 20 minutes, the supernatant is aspirated and discarded, and the radioactivity in the immunoprecipitate is counted in an automatic gamma spectrometer. The counts per minute for standards and unknowns are corrected for non-specific background and compared to the total counts per minute for the reaction tubes where no competing antigen was introduced.

| Molecule | cross-reactivity / competition in the RIA (in words) |
| --- | --- |
| TP.5: TP.5 (Ortho Pharmaceuticals) [reference compound] | no cross-reactivity |
| alpha-fetoprotein: oncodevelopmental antigen alpha-fetoprotein (Hoffmann-La Roche Inc.) (protein, UniProt P02771 19-609, looked up) Alpha-fetoprotein: RTLHRNEYGIASILDSYQCTAEISLADLATIFFAQFVQEATYKEVSKMVKDALTAIEKPTGDEQSSGCLENQLPAFLEELCHEKEILEKYGHSDCCSQSEEGRHNCFLAHKKPTPASIPLFQVPEPVTSCEAYEEDRETFMNKFIYEIARRHPFLYAPTILLWAARYDKIIPSCCKAENAVECFQTKAATVTKELRESSLLNQHACAVMKNFGTRTFQAITVTKLSQKFTKVNFTEIQKLVLDVAHVHEHCCRGDVLDCLQDGEKIMSYICSQQDTLSNKITECCKLTTLERGQCIIHAENDEKPEGLSPNLNRFLGDRDFNQFSSGEKNIFLASFVHEYSRRHPQLAVSVILRVAKGYQELLEKCFQTENPLECQDKGEEELQKYIQESQALAKRSCGLFQKLGEYYLQNAFLVAYTKKAPQLTSSELMAITRKMAATAATCCQLSEDKLLACGEGAADIIIGHLCIRHEMTPVNPGVGQCCTSSYANRRPCFSSLVVDETYVPPAFSDDKFIFHKDLCQAQGVALQTMKQEFLINLVKQKPQITEEQLEAVIADFSGLLEKCCQGQEQEVCFAEEGQKLISKTRAALGV | do not cross-react |

Now from value to molecule:

| cross-reactivity / competition in the RIA (in words) | Molecule |
| --- | --- |
| no cross-reactivity | thymopoietin II fragment 29-41: thymopoietin II fragment 29-41 (Bachem, Inc.) (AGEQRKDVYVQLY; UniProt P42167 29-41, looked up, fragment) [reference compound] |
| do not cross-react | CEA: oncodevelopmental antigen, carcinoembryonic antigen (Hoffmann-La Roche Inc.) (protein, UniProt P06731 35-685, looked up) Cell adhesion molecule CEACAM5: KLTIESTPFNVAEGKEVLLLVHNLPQHLFGYSWYKGERVDGNRQIIGYVIGTQQATPGPAYSGREIIYPNASLLIQNIIQNDTGFYTLHVIKSDLVNEEATGQFRVYPELPKPSISSNNSKPVEDKDAVAFTCEPETQDATYLWWVNNQSLPVSPRLQLSNGNRTLTLFNVTRNDTASYKCETQNPVSARRSDSVILNVLYGPDAPTISPLNTSYRSGENLNLSCHAASNPPAQYSWFVNGTFQQSTQELFIPNITVNNSGSYTCQAHNSDTGLNRTTVTTITVYAEPPKPFITSNNSNPVEDEDAVALTCEPEIQNTTYLWWVNNQSLPVSPRLQLSNDNRTLTLLSVTRNDVGPYECGIQNELSVDHSDPVILNVLYGPDDPTISPSYTYYRPGVNLSLSCHAASNPPAQYSWLIDGNIQQHTQELFISNITEKNSGLYTCQANNSASGHSRTTVKTITVSAELPKPSISSNNSKPVEDKDAVAFTCEPEAQNTTYLWWVNGQSLPVSPRLQLSNGNRTLTLFNVTRNDARAYVCGIQNSVSANRSDPVTLDVLYGPDTPIISPPDSSYLSGANLNLSCHSASNPSPQYSWRINGIPQQHTQVLFIAKITPNNNGTYACFVSNLATGRNNSIVKSITVSASGTSPGLSA |

same assay, conditions: RIA standard curve

| ED50 (50% inhibition) of standard curve | operating range for the assay | slope at inflection point (50% inhibition) | Molecule |
| --- | --- | --- | --- |
| 130 to 160 pg | 15 to 800 pg | -1.0 | thymosin α1: heat stable, acidic polypeptide composed of 28 amino acid residues (SDAAVDTSSEITTKDLKEKKEVVEEAEN; ends and bridges not checked; UniProt P06454 2-29, looked up) |

same assay, conditions: RIA standard curve; typically

| minimal detectable dose (10% inhibition) | Molecule |
| --- | --- |
| 8 to 15 pg | thymosin α1: heat stable, acidic polypeptide composed of 28 amino acid residues (SDAAVDTSSEITTKDLKEKKEVVEEAEN; ends and bridges not checked; UniProt P06454 2-29, looked up) |

same assay, conditions: Table 1; 125I-[Tyr1]-thymosin α1 tracer

| Molecule | ED50 - Amount of protein (ng) required to produce a 50% inhibition in RIA |
| --- | --- |
| TP.5: TP.5 (Ortho Pharmaceuticals) [reference compound] | > 15,000 ng |
| Glucagon (porcine): Glucagon (porcine) | > 500,000 ng |
| Transferrin (human): Transferrin (human) | > 50,000 ng |
| Erythopoietin (human): Erythopoietin (human) | > 160,000 ng |
| Insulin (porcine): Insulin (porcine) | > 200,000 ng |
| RPPGFSPFR [Bradykinin, reference compound] | > 50,000 ng |
| Hemoglobin (human): Hemoglobin (human) | > 200,000 ng |
| Myoglobin (equine): Myoglobin (equine) (protein, UniProt P68082 2-154, looked up) Myoglobin: GLSDGEWQQVLNVWGKVEADIAGHGQEVLIRLFTGHPETLEKFDKFKHLKTEAEMKASEDLKKHGTVVLTALGGILKKKGHHEAELKPLAQSHATKHKIPIKYLEFISDAIIHVLHSKHPGDFGADAQGAMTKALELFRNDIAAKYKELGFQG | 50,000 ng |

Now from value to molecule:

| ED50 - Amount of protein (ng) required to produce a 50% inhibition in RIA | Molecule |
| --- | --- |
| > 200,000 ng | Cytochrome C (equine): Cytochrome C (equine) |
| > 250,000 ng | Serum albumin (bovine): Serum albumin (bovine) |
| 0.45 ng | Natural thymosin α1: heat stable, acidic polypeptide composed of 28 amino acid residues, isolated from calf thymus thymosin fraction 5 (SDAAVDTSSEITTKDLKEKKEVVEEAEN; ends and bridges not checked; UniProt P01252 2-29, looked up) |
| 0.40 ng | Synthetic thymosin α1: thymosin α1 obtained by peptide synthesis procedures (SDAAVDTSSEITTKDLKEKKEVVEEAEN; ends and bridges not checked; UniProt P06454 2-29, looked up) [reference compound] |
| > 250,000 ng | Fetuin (bovine): Fetuin (bovine) |
| > 25,000 ng | CEA: oncodevelopmental antigen, carcinoembryonic antigen (Hoffmann-La Roche Inc.) (protein, UniProt P06731 35-685, looked up) Cell adhesion molecule CEACAM5: KLTIESTPFNVAEGKEVLLLVHNLPQHLFGYSWYKGERVDGNRQIIGYVIGTQQATPGPAYSGREIIYPNASLLIQNIIQNDTGFYTLHVIKSDLVNEEATGQFRVYPELPKPSISSNNSKPVEDKDAVAFTCEPETQDATYLWWVNNQSLPVSPRLQLSNGNRTLTLFNVTRNDTASYKCETQNPVSARRSDSVILNVLYGPDAPTISPLNTSYRSGENLNLSCHAASNPPAQYSWFVNGTFQQSTQELFIPNITVNNSGSYTCQAHNSDTGLNRTTVTTITVYAEPPKPFITSNNSNPVEDEDAVALTCEPEIQNTTYLWWVNNQSLPVSPRLQLSNDNRTLTLLSVTRNDVGPYECGIQNELSVDHSDPVILNVLYGPDDPTISPSYTYYRPGVNLSLSCHAASNPPAQYSWLIDGNIQQHTQELFISNITEKNSGLYTCQANNSASGHSRTTVKTITVSAELPKPSISSNNSKPVEDKDAVAFTCEPEAQNTTYLWWVNGQSLPVSPRLQLSNGNRTLTLFNVTRNDARAYVCGIQNSVSANRSDPVTLDVLYGPDTPIISPPDSSYLSGANLNLSCHSASNPSPQYSWRINGIPQQHTQVLFIAKITPNNNGTYACFVSNLATGRNNSIVKSITVSASGTSPGLSA |
